US20220288052A1, “COMPOUND FOR COMBINATION TREATMENT” (priority 2019, published 2022)
Like-named read-outs stand apart in the source and are kept apart here.

Key:
5-HT transporter = 5-HT transporter (Homo sapiens, UniProt P31645); assay: ^3H-Citalopram binding, human
Source text: (§1) Compound (I) has been characterized as a monoamine reuptake inhibitor, based on the profile in a series of functional assays (Table 2).

NA transporter = NA transporter (Rattus norvegicus, UniProt Q63380); assay: ^3H-Nisoxetine binding, rat
Source text: as §1

SERT = SERT (Homo sapiens, UniProt P31645); assay: MDS LeadProfilingScreen, SERT; assay type: binding
Serotonin 5-HT3 = target: T1, Serotonin 5-HT3 (Homo sapiens, UniProt P46098); assay: MDS LeadProfilingScreen, Serotonin 5-HT3; assay type: binding
T1 sequence (P46098 24-478): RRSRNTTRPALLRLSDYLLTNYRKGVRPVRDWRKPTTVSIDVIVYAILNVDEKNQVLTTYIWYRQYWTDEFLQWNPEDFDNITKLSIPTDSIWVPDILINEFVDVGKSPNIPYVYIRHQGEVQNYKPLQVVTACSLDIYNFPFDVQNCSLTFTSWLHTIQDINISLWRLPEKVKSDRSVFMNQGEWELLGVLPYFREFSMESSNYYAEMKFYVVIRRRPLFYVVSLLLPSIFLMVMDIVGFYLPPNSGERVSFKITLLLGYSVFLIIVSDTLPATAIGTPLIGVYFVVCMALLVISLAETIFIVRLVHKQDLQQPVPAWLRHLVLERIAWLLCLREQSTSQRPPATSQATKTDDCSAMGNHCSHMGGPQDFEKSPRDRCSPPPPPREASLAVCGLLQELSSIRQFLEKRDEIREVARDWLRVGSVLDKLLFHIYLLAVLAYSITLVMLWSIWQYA

[1] = target: T2, dopamine transporter (DAT) (Mus musculus, UniProt Q61327); assay: MPTP model of DAT inhibition (striatal dopamine depletion); assay type: in vivo, C57 mouse; design: Dopamine Mean ± SEM / DOPAC Mean ± SEM / HVA Mean ± SEM: unit not given here
T2 construct: in vivo DAT transporter occupancy (open bars) in mouse striatum; from tissue; host or cells: mouse striatum (in vivo; C57 mice in the MPTP model)
Source text: In this model compound (I) induced protection against the dopamine depletion induced by the entry of the MPTP metabolite MPP+ into the dopamine terminals of the mouse C57 striatal tissue.

[2] = Bioavailability study in mouse; assay type: in vivo
Source text: Compound (I) is absorbed quickly.

[3] = Metabolic stability in liver microsomes, rat; assay type: in vitro ADME
Procedure: The metabolic stability of compound (I) was tested in liver microsomes from all in house available species at 1 and 5 μM. One metabolite of 16 mass units higher than parent, was found in all incubations, except with human liver microsomes.

CYP 2C19 = CYP 2C19 (Homo sapiens, UniProt P33261); assay: CYP450 inhibition, cocktail of selective substrates, 2C19; assay type: in vitro ADME; settings: CYP 2C19, Omeprazole to 5-hydroxyomeprazole; read-out: IC50 of compound (I)
Procedure: Compound (I) was tested for CYP450 inhibition using a cocktail of selective substrates. […] This might be addressed later in a clinical study.

plasma protein = assay: Plasma protein binding by equilibrium dialysis, human; assay type: in vitro ADME
Procedure: The plasma protein binding was tested in rat, mouse, dog and human plasma by equilibrium dialysis. The plasma protein binding of this compound is remarkably low (Table 24).

[4] = 5 days p.o. tolerated dose study in female mice (non-GLP); assay type: in vivo, mouse; settings: p.o. 5 days, 3, 5, 15, 30, 60 mg/kg
[5] = tested on: rat corpus cavernosum strips; assay: Corpus cavernosum contractility
Procedure: FIG. 29: Original traces showing the effect of compound (I) on resting tone in rat corpus cavernosum strips. Increasing concentrations (10^−9-3×10^−5 M) of compound (I) were added. Compound (I) induced small relaxations, while at the highest concentration (3×10^−5 M) contraction was observed occasionally (lower trace).
FIG. 30: Average results showing the effect of compound (I) on resting tone in rat corpus cavernosum strips. Increasing concentrations (10^−9-3×10^−5 M) of compound (I) were added. Compound (I) induced small relaxations, while at the highest concentration (3×10^−5 M) contraction was observed occasionally (lower trace). Compound (I) responses were obtained in the presence of vehicle, sildenafil (10^−7 M), guanethidine (10^−5 M), and L-NOARG (10^−4 M). Results are means±s.e. mean of preparations from 5 rats.
FIG. 31: Original traces showing relaxations to compound (I) in rat corpus cavernosum strips contracted with phenylephrine (Phe). Representative traces show compound (I) relaxation in the presence of vehicle, guanethidine (10^−5 M), L-NOARG (10^−4 M), sildenafil (10^−7 M), in phenylephrine-contracted preparations.
FIG. 32: Average relaxations induced by compound (I) in rat corpus cavernosum strips. In phenylephrine-contracted preparations, increasing concentrations (10^−9-3×10^−5 M) of compound (I). […]

[6] = 7.5 mg/kg p.o. 0 min + MPTP 25 mg/kg s.c. 60 min
[7] = 15 mg/kg p.o. 0 min + MPTP 25 mg/kg s.c. 60 min
[8] = 30 mg/kg p.o. 0 min + MPTP 25 mg/kg s.c. 60 min
[9] = female, NMRI, plasma, intravenous, 10 mg/kg
[10] = female, NMRI, plasma, po, 10 mg/kg p.o.

T2 sequence (Q61327 whole entry): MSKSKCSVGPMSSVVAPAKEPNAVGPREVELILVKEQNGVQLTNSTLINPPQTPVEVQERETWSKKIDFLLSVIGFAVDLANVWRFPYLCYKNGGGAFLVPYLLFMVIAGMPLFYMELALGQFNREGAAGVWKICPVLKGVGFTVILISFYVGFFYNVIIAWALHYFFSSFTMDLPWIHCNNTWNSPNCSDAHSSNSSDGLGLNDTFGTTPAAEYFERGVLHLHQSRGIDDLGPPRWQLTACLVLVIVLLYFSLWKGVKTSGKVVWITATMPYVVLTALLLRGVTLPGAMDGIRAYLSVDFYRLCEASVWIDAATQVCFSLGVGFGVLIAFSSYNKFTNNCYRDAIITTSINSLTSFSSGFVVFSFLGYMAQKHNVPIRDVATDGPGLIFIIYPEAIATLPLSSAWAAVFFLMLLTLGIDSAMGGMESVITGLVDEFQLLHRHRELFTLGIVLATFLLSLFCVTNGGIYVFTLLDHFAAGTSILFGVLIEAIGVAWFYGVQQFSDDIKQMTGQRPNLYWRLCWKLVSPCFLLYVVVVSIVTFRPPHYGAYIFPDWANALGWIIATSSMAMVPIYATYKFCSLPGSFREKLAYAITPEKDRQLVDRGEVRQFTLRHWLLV
Chain of SERT (P31645 whole entry): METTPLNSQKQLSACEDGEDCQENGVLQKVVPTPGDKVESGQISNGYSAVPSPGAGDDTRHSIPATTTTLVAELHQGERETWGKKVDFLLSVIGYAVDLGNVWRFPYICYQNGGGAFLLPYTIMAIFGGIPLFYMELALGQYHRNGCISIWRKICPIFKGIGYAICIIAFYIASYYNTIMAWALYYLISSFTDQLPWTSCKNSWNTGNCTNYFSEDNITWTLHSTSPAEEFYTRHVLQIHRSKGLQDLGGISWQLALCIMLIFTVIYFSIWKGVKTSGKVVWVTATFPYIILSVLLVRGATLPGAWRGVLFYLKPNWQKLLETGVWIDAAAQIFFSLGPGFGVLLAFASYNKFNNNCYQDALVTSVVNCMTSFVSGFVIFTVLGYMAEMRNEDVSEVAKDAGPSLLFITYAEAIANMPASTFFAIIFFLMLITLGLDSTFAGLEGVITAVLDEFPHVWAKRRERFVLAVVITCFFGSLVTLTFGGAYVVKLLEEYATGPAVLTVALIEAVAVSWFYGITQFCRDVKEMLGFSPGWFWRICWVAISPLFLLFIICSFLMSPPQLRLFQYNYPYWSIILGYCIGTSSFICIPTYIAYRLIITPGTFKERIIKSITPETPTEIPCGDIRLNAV
Chain of 5-HT transporter (P31645 whole entry): as above
Chain of NA transporter (Q63380 1-617): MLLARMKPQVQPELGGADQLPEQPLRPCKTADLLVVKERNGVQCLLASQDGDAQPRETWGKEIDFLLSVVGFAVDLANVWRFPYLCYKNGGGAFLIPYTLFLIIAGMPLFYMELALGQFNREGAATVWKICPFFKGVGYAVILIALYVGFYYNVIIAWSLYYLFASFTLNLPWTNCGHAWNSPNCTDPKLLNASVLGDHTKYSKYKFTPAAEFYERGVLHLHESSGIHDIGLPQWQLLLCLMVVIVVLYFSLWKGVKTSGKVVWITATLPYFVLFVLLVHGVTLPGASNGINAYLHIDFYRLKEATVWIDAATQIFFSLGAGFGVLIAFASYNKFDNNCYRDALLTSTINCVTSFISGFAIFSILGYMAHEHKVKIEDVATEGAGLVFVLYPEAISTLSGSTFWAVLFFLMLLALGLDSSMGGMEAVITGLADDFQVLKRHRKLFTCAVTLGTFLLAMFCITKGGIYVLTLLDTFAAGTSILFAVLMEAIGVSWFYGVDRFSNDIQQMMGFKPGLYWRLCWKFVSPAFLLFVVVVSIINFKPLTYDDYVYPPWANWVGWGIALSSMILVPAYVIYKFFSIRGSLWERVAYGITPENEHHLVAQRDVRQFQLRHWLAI
Chain of CYP 2C19 (P33261 whole entry): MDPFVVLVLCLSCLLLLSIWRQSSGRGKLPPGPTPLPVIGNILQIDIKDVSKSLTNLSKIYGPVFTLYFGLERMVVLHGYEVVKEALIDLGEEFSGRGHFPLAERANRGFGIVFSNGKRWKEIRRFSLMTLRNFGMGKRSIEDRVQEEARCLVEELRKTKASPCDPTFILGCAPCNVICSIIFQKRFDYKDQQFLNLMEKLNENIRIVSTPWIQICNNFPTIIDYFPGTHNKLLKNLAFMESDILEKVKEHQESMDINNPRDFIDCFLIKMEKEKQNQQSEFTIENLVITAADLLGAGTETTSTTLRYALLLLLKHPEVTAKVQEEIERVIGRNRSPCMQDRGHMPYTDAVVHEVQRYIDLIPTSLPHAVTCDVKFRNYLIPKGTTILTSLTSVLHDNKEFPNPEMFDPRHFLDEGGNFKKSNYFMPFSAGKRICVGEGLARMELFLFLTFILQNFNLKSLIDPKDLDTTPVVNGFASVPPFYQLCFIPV

Q: Which results are given for `O=c1ccc2ccc(O[C@@H]3C[C@H]4CC[C@@H](C3)N4)cc2o1` [Compound (I), exo-7-(8-aza-bicyclo[3.2.1]oct-3-yloxy)-chromen-2-one]?
A: Ki (5-HT transporter): 0.24 nM; Ki (NA transporter): 1300 nM; Ki (SERT): 0.37 nM; inhibition at 10 µM (SERT; SERT, Human, 10 μM): 103%; Ki (Serotonin 5-HT3): 1040 nM; Separation to transporter hDAT (Serotonin 5-HT3; 5-HT3 Ki versus hDAT Ki 155 nM): x6.7; Separation to transporter hNET (Serotonin 5-HT3; 5-HT3 Ki versus hNET Ki 594 nM): x1.7; inhibition at 10 µM (Serotonin 5-HT3; Serotonin 5-HT3, Human, 10 μM): 86%; DOPAC Mean ± SEM [1, 6]: 1 ± 0.2; Dopamine Mean ± SEM [1, 6]: 6.3 ± 1.1; HVA Mean ± SEM [1, 6]: 0.7 ± 0.1; DOPAC Mean ± SEM [1, 7]: 1.7 ± 0.1^; Dopamine Mean ± SEM [1, 7]: 12.5 ± 0.7; HVA Mean ± SEM [1, 7]: 1 ± 0.1; Protection against MPTP-induced dopamine depletion ([1]; 15 mg/kg, C57 mouse striatal tissue): approximately 90%; DOPAC Mean ± SEM [1, 8]: 2.1 ± 0.2^; Dopamine Mean ± SEM [1, 8]: 14.7 ± 1.2; HVA Mean ± SEM [1, 8]: 1.2 ± 0.1; T½ i.v. ([2]; 10 mg/kg i.v., 10 mg/kg): 48 min; AUC(0-∞) p.o. ([2]; 10 mg/kg p.o., 10 mg/kg): 2308 ng·h/mL; Vd [2, 9]: 3.5 L/kg; clearance [2, 9]: 71.7 mL/min/kg; AUC(0-inf) ([2]; female, NMRI, plasma, iv, 10 mg/kg, 10 mg/kg i.v., read-out: AUC(0-∞) i.v.): 2310 ng·h/mL; half-life ([2]; female, NMRI, plasma, iv, 10 mg/kg, 10 mg/kg i.v., read-out: T½ i.v. (converted)): 36 min; Cmax [2, 10]: 1090 ng/mL; Tmax [2, 10]: 30 min; AUC(0-inf) ([2]; female, NMRI, plasma, po, 10 mg/kg, 10 mg/kg p.o., read-out: AUC(0-∞) p.o.): 1720 ng·h/mL; half-life ([2]; female, NMRI, plasma, po, 10 mg/kg, 10 mg/kg p.o., read-out: T½ p.o. (converted)): 66 min; bioavailability ([2]; plasma, oral, female NMRI mice, 10 mg/kg p.o. vs 10 mg/kg i.v.): 74%; Stability at 1 μM [3]: 40%; Stability at 5 μM [3]: 61%; IC50 (CYP 2C19): > 100 µM; fraction unbound at 2710 ng/ml (plasma protein): 0.714; Activity [4]: increase in activity (sedation and stereotypic behaviour); Body weight [4]: no significant changes in bodyweight; Effect on resting tone ([5]; resting corpus cavernosum strips, 10^−9-3×10^−5 M): only small relaxations; Relaxation of contracted strips ([5]; strips contracted with phenylephrine (10^−6 M)): concentration-dependent relaxations were observed at higher concentrations
